Laboratory results reported in ChEMBL document CHEMBL3414470, “Synthesis and biological evaluation of 4-oxycoumarin derivatives as a new class of antifilarial agents” (Eur J Med Chem, 2015).
Converted amounts (≈) assume the structure as drawn. The source made the active and inactive calls. No cut-off for these calls is given here.

Columns and labels:
Brugia malayi [1] = experiment: Antifilarial activity against Brugia malayi adult worm assessed as reduction in motility at 2.5 uM after 5 days by MTT dye reduction assay; format: functional; conditions: 120 h
Brugia malayi [2] = experiment: Antifilarial activity against Brugia malayi adult worm assessed as reduction in motility at 1.25 uM after 5 days by MTT dye reduction assay; format: functional; conditions: 120 h
Brugia malayi [3] = experiment: Antifilarial activity against Brugia malayi adult worm assessed as reduction in motility at 0.625 uM after 5 days by MTT dye reduction assay; format: functional; conditions: 120 h
Brugia malayi [4] = experiment: Antifilarial activity against Brugia malayi adult worm assessed as reduction in motility at 0.312 uM after 5 days by MTT dye reduction assay; format: functional; conditions: 120 h
Brugia malayi [5] = experiment: Antifilarial activity against Brugia malayi adult worm assessed as reduction in motility at 0.19 uM after 5 days by MTT dye reduction assay; format: functional; conditions: 120 h
Brugia malayi [6] = experiment: Antifilarial activity against Brugia malayi microfilaria assessed as reduction in motility at 2.5 uM after 5 days by MTT dye reduction assay; format: functional; conditions: 120 h
Brugia malayi [7] = experiment: Antifilarial activity against Brugia malayi microfilaria assessed as reduction in motility at 1.25 uM after 5 days by MTT dye reduction assay; format: functional; conditions: 120 h
Brugia malayi [8] = experiment: Antifilarial activity against Brugia malayi microfilaria assessed as reduction in motility at 0.625 uM after 5 days by MTT dye reduction assay; format: functional; conditions: 120 h
Brugia malayi [9] = experiment: Antifilarial activity against Brugia malayi microfilaria assessed as reduction in motility at 0.312 uM after 5 days by MTT dye reduction assay; format: functional; conditions: 120 h
Brugia malayi [10] = experiment: Antifilarial activity against Brugia malayi microfilaria assessed as reduction in motility at 0.19 uM after 5 days by MTT dye reduction assay; format: functional; conditions: 120 h
Brugia malayi [11] = experiment: Antifilarial activity against Brugia malayi adult worm assessed as reduction in motility after 5 days by MTT dye reduction assay; format: functional, organism-based
[12] = Selectivity index, ratio of CC50 for African green monkey Vero cells to IC50 for Brugia malayi adult worm; format: functional
Brugia malayi [13] = experiment: Antifilarial activity against Brugia malayi microfilaria assessed as reduction in motility after 5 days by MTT dye reduction assay; format: functional, organism-based
[14] = Selectivity index, ratio of CC50 for African green monkey Vero cells to IC50 for Brugia malayi microfilaria; format: functional
[15] = Cytotoxicity against African green monkey Vero cells after 72 hrs by resazurin dye-based fluorescence assay; format: cell-based; conditions: chlorocebus sabaeus, Vero cells
Brugia malayi [16] = experiment: Antifilarial activity against Brugia malayi adult worm infected in jird model assessed as adulticidal activity at 100 mg/kg, sc after 5 days measured till day 45 relative to control; format: functional; conditions: route subcutaneous
Brugia malayi [17] = experiment: Antifilarial activity against Brugia malayi adult worm infected in jird model assessed as sterile female at 100 mg/kg, sc after 5 days measured till day 45 relative to control; format: functional; conditions: route subcutaneous
Brugia malayi [18] = experiment: Antifilarial activity against Brugia malayi microfilariae infected in jird model assessed as microfilaricidal activity at 100 mg/kg, sc after 5 days measured till day 45 relative to control; format: functional; conditions: route subcutaneous
Brugia malayi [19] = experiment: Antifilarial activity against Brugia malayi adult worm assessed as reduction in motility at 5 uM after 5 days by MTT dye reduction assay; format: functional; conditions: 120 h
Brugia malayi [20] = experiment: Antifilarial activity against Brugia malayi adult worm assessed as reduction in motility at 10 uM after 5 days by MTT dye reduction assay; format: functional, organism-based
Brugia malayi [21] = experiment: Antifilarial activity against Brugia malayi microfilaria assessed as reduction in motility at 5 uM after 5 days by MTT dye reduction assay; format: functional; conditions: 120 h
Brugia malayi [22] = experiment: Antifilarial activity against Brugia malayi microfilaria assessed as reduction in motility at 10 uM after 5 days by MTT dye reduction assay; format: functional, organism-based
Brugia malayi [23] = experiment: Antifilarial activity against Brugia malayi adult worm assessed as reduction in motility at 0.156 uM after 5 days by MTT dye reduction assay; format: functional; conditions: 120 h
Brugia malayi [24] = experiment: Antifilarial activity against Brugia malayi adult worm assessed as reduction in motility at 0.078 uM after 5 days by MTT dye reduction assay; format: functional; conditions: 120 h
Brugia malayi [25] = experiment: Antifilarial activity against Brugia malayi adult worm assessed as reduction in motility at 0.039 uM after 5 days by MTT dye reduction assay; format: functional; conditions: 120 h
Brugia malayi [26] = experiment: Antifilarial activity against Brugia malayi adult worm assessed as reduction in motility at 0.019 uM after 5 days by MTT dye reduction assay; format: functional; conditions: 120 h
Brugia malayi [27] = experiment: Antifilarial activity against Brugia malayi microfilaria assessed as reduction in motility at 0.156 uM after 5 days by MTT dye reduction assay; format: functional; conditions: 120 h
Brugia malayi [28] = experiment: Antifilarial activity against Brugia malayi microfilaria assessed as reduction in motility at 0.078 uM after 5 days by MTT dye reduction assay; format: functional; conditions: 120 h
Brugia malayi [29] = experiment: Antifilarial activity against Brugia malayi microfilaria assessed as reduction in motility at 0.039 uM after 5 days by MTT dye reduction assay; format: functional; conditions: 120 h
Brugia malayi [30] = experiment: Antifilarial activity against Brugia malayi microfilaria assessed as reduction in motility at 0.019 uM after 5 days by MTT dye reduction assay; format: functional; conditions: 120 h

| Compound | MIC (Brugia malayi [11]; Brugia malayi, 120 h) [µM] | MIC (Brugia malayi [13]; Brugia malayi, 120 h) [µM] | inhibition at 2.5 µM (Brugia malayi [1]) [%] | inhibition at 1.25 µM (Brugia malayi [2]) [%] | inhibition at 0.625 µM (Brugia malayi [3]) [%] | inhibition at 0.312 µM (Brugia malayi [4]) [%] | inhibition at 2.5 µM (Brugia malayi [6]) [%] | inhibition at 1.25 µM (Brugia malayi [7]) [%] | inhibition at 0.625 µM (Brugia malayi [8]) [%] | inhibition at 0.312 µM (Brugia malayi [9]) [%] | IC50 (Brugia malayi [11]; Brugia malayi, 120 h) [nM] | Ratio CC50/IC50 [12] | IC50 (Brugia malayi [13]; Brugia malayi, 120 h) [nM] | Ratio CC50/IC50 [14] | CC50 at 72 h [15] [nM] | Activity (Brugia malayi [16]) [%] | Activity (Brugia malayi [17]) [%] | Activity (Brugia malayi [18]) [%] | inhibition at 5 µM (Brugia malayi [19]) [%] | inhibition at 5 µM (Brugia malayi [21]) [%] | further results |
| --- | --- | --- | --- | --- | --- | --- | --- | --- | --- | --- | --- | --- | --- | --- | --- | --- | --- | --- | --- | --- | --- |
| O=c1cc(OCC(O)CN2CCCCC2)c2ccccc2o1 (configuration not stated) |  |  |  |  |  |  |  |  |  |  |  |  |  |  |  |  |  |  | 23.7 | 1 | Activity (Brugia malayi [20]): inactive; Activity (Brugia malayi [22]): inactive; MIC (Brugia malayi [11]): inactive; MIC (Brugia malayi [13]): inactive |
| CCCCCCCC/C=C/CCCCCCCCNCC(O)COc1cc(=O)oc2ccccc12 (configuration not stated) | 0.31 (≈ 0.151 µg/mL) | 0.31 (≈ 0.151 µg/mL) |  |  |  | 90.4 |  |  |  | 100 | 94 | >1063 | 13 | >7692 | > 100000 | 69.4 | 16.6 | 50.9 |  |  | inhibition at 0.156 µM (Brugia malayi [23]): 45%; inhibition at 0.078 µM (Brugia malayi [24]): 42%; inhibition at 0.039 µM (Brugia malayi [25]): 10.2%; inhibition at 0.019 µM (Brugia malayi [26]): 8.5%; inhibition at 0.156 µM (Brugia malayi [27]): 75%; inhibition at 0.078 µM (Brugia malayi [28]): 75%; inhibition at 0.039 µM (Brugia malayi [29]): 50%; inhibition at 0.019 µM (Brugia malayi [30]): 50% |
| CN1CCN(CC(O)COc2cc(=O)oc3ccccc23)CC1 (configuration not stated) | 5 (≈ 1.59 µg/mL) | 2.5 (≈ 0.796 µg/mL) | 45.8 | 38.7 | 29.8 | 11.8 | 75 | 75 | 75 | 75 | 1730 | >57.8 | 280 | >357.14 | > 100000 | 44.4 | 0 | 30.4 | 85.6 | 100 |  |
| O=C(O)CCCNCC(O)COc1cc(=O)oc2ccccc12 (configuration not stated) |  |  |  |  |  |  |  |  |  |  |  |  |  |  |  |  |  |  | 17.5 | 1 | Activity (Brugia malayi [20]): inactive; Activity (Brugia malayi [22]): inactive; MIC (Brugia malayi [11]): inactive; MIC (Brugia malayi [13]): inactive |

Now from value to compound, other results behind:

| MIC (Brugia malayi [11]; Brugia malayi, 120 h) [µM] | MIC (Brugia malayi [13]; Brugia malayi, 120 h) [µM] | Compound | inhibition at 2.5 µM (Brugia malayi [1]) [%] | inhibition at 1.25 µM (Brugia malayi [2]) [%] | inhibition at 0.625 µM (Brugia malayi [3]) [%] | inhibition at 0.312 µM (Brugia malayi [4]) [%] | inhibition at 2.5 µM (Brugia malayi [6]) [%] | inhibition at 1.25 µM (Brugia malayi [7]) [%] | inhibition at 0.625 µM (Brugia malayi [8]) [%] | inhibition at 0.312 µM (Brugia malayi [9]) [%] | IC50 (Brugia malayi [11]; Brugia malayi, 120 h) [nM] | Ratio CC50/IC50 [12] | IC50 (Brugia malayi [13]; Brugia malayi, 120 h) [nM] | Ratio CC50/IC50 [14] | CC50 at 72 h [15] [nM] | Activity (Brugia malayi [16]) [%] | Activity (Brugia malayi [17]) [%] | Activity (Brugia malayi [18]) [%] | inhibition at 5 µM (Brugia malayi [19]) [%] | inhibition at 5 µM (Brugia malayi [21]) [%] | further results |
| --- | --- | --- | --- | --- | --- | --- | --- | --- | --- | --- | --- | --- | --- | --- | --- | --- | --- | --- | --- | --- | --- |
| 2.5 (≈ 0.728 µg/mL) | 2.5 (≈ 0.728 µg/mL) | CCCCNCC(O)COc1cc(=O)oc2ccccc12 (configuration not stated) | 84.9 | 52.4 | 48.9 | 46.9 | 100 | 75 | 50 | 1 | 690 | >144.9 | 430 | >232.5 | > 100000 |  |  |  |  |  | inhibition at 0.19 µM (Brugia malayi [5]): 8.9%; inhibition at 0.19 µM (Brugia malayi [10]): 1% |
| 2.5 (≈ 0.793 µg/mL) | 2.5 (≈ 0.793 µg/mL) | O=c1cc(OCC(O)CNC2CCCCC2)c2ccccc2o1 (configuration not stated) | 92 | 47 | 24.2 | 16.2 | 100 | 100 | 50 | 50 | 360 | >277.7 | 260 | >384.6 | > 100000 | 66.6 | 0 | 31.8 |  |  |  |
| 5 (≈ 1.63 µg/mL) | 2.5 (≈ 0.813 µg/mL) | Cc1ccc(NCC(O)COc2cc(=O)oc3ccccc23)cc1 (configuration not stated) | 38.6 | 12.8 | 8.9 | 9.6 | 75 | 75 | 75 | 75 | 1380 | >72.4 | 180 | >555.5 | > 100000 | 24.8 | 0 | 31.7 | 78.9 | 100 |  |
